As a reminder, the inhibition is the relative decrease from the control value, in per cent. One may read the Kd as the equilibrium constant for the complex coming apart.

Results on five compounds are retold here after article PMC3270411 (Chemistry & biology, 2012).

In one experiment the target is MARK3 (Homo sapiens, UniProt P27448). Briefly: KiNativ cellular kinase profiling. The format is cell-based. To be noted: for Percent inhibition of kinase labeling by ATP-biotin: A375 cells, 1 μM, 3 hours, MARK3, labeling site Lys1; for inhibition at 1 µM: A-375, read-out: Percent inhibition of kinase labeling by ATP-biotin.
In a further experiment the target is T1, PKD2 (Homo sapiens, UniProt Q9BZL6).
T1 sequence (Q9BZL6 1-878): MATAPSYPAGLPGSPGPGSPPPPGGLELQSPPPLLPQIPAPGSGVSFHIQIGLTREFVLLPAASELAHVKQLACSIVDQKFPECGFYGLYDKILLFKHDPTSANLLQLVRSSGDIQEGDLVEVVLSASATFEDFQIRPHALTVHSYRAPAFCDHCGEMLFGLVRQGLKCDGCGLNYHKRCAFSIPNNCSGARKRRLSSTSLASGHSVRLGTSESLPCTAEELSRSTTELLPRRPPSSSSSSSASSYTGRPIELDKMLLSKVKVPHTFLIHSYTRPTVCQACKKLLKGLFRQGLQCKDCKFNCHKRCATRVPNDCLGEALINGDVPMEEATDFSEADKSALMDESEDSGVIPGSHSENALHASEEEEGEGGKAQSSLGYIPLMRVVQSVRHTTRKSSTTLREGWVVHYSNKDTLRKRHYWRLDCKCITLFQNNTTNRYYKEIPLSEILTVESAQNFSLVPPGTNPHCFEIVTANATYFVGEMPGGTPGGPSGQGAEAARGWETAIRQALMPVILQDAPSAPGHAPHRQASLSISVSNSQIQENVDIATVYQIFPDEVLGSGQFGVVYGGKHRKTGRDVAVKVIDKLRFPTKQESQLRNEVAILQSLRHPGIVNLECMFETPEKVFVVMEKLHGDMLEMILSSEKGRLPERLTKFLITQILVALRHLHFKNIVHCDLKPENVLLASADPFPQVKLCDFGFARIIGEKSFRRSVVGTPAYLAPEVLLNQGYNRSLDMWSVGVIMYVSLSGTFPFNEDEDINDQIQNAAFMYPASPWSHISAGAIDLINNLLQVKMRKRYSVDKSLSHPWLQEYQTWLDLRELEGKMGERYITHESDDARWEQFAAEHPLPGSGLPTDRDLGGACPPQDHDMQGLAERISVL
Briefly: KiNativ cellular kinase profiling. The format is cell-based. As to conditions: for Percent inhibition of kinase labeling by ATP-biotin: A375 cells, 1 μM, 3 hours, PKD2, labeling site Lys1; for inhibition at 1 µM: A-375, read-out: Percent inhibition of kinase labeling by ATP-biotin.

The next experiment has as its target CDK9 (Homo sapiens, UniProt P50750). Description: KiNativ cellular kinase profiling. The format is cell-based. As to conditions: for Percent inhibition of kinase labeling by ATP-biotin: A375 cells, 1 μM, 3 hours, CDK9, labeling site Lys2; for inhibition at 1 µM: A-375, read-out: Percent inhibition of kinase labeling by ATP-biotin.
The next experiment deals with ZC2/TNIK (Homo sapiens, UniProt Q9UKE5). Description: KiNativ cellular kinase profiling. The format is cell-based. As to conditions: for Percent inhibition of kinase labeling by ATP-biotin: A375 cells, 1 μM, 3 hours, ZC2/TNIK, labeling site Lys1; for inhibition at 1 µM: A-375, read-out: Percent inhibition of kinase labeling by ATP-biotin.
Chain of ZC2/TNIK (Q9UKE5 whole entry): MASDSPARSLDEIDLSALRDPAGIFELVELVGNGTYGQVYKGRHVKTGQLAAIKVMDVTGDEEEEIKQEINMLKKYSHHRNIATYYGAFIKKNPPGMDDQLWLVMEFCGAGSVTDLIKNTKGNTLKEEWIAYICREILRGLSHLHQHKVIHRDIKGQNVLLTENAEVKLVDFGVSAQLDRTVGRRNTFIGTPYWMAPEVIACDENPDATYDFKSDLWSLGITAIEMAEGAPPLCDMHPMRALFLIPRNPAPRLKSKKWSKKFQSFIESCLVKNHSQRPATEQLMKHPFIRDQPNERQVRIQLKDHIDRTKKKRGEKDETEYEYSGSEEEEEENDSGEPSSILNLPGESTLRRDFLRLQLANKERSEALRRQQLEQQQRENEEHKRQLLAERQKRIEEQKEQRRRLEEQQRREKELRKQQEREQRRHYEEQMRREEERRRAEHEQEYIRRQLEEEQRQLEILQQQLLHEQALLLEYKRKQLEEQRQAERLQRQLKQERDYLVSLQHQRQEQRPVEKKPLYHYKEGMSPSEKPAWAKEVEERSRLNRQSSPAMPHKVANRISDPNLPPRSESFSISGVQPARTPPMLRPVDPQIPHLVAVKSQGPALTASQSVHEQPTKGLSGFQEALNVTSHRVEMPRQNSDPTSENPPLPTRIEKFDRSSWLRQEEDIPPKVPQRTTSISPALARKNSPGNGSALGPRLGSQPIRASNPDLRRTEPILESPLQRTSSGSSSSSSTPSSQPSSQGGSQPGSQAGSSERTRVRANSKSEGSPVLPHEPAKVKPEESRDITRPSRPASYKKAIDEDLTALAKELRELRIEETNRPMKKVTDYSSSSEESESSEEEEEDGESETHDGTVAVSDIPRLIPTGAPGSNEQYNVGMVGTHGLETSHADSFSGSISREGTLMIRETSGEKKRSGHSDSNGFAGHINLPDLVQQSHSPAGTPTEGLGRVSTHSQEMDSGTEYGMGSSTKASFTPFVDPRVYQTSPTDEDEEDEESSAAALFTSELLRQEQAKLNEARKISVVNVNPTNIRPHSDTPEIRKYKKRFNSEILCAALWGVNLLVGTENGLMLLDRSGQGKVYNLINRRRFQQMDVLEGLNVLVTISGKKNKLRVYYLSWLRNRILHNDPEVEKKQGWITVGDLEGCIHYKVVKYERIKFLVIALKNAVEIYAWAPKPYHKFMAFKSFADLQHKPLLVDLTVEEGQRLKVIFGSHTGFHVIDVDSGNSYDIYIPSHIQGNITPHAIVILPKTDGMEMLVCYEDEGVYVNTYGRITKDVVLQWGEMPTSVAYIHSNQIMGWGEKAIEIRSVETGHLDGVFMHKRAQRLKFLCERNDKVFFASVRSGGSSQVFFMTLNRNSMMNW
For another experiment, the system named is ROCK1,ROCK2. Description: KiNativ cellular kinase profiling. The format is cell-based. As to conditions: A375 cells, 1 μM, 3 hours; ROCK1,ROCK2, labeling site Lys2.
A further experiment has as its target MARK2 (Homo sapiens, UniProt Q7KZI7). Description: KiNativ cellular kinase profiling. The format is cell-based. As to conditions: for Percent inhibition of kinase labeling by ATP-biotin: A375 cells, 1 μM, 3 hours, MARK2, labeling site Lys1; for inhibition at 1 µM: A-375, read-out: Percent inhibition of kinase labeling by ATP-biotin.
In a further experiment the target is PIP5K3 (Homo sapiens, UniProt Q9Y2I7). Briefly: KiNativ cellular kinase profiling. The format is cell-based. To be noted: for Percent inhibition of kinase labeling by ATP-biotin: A375 cells, 1 μM, 3 hours, PIP5K3, labeling site ATP; for inhibition at 1 µM: A-375, read-out: Percent inhibition of kinase labeling by ATP-biotin.
For experiment [1], the system named is ZC1/HGK,ZC2/TNIK, ZC3/MINK. Description: KiNativ cellular kinase profiling. The format is cell-based. As to conditions: A375 cells, 1 μM, 3 hours, labeling site Lys2.
In a further experiment the target is T2, IKKa (Homo sapiens, UniProt O15111).
T2 sequence (O15111 1-745): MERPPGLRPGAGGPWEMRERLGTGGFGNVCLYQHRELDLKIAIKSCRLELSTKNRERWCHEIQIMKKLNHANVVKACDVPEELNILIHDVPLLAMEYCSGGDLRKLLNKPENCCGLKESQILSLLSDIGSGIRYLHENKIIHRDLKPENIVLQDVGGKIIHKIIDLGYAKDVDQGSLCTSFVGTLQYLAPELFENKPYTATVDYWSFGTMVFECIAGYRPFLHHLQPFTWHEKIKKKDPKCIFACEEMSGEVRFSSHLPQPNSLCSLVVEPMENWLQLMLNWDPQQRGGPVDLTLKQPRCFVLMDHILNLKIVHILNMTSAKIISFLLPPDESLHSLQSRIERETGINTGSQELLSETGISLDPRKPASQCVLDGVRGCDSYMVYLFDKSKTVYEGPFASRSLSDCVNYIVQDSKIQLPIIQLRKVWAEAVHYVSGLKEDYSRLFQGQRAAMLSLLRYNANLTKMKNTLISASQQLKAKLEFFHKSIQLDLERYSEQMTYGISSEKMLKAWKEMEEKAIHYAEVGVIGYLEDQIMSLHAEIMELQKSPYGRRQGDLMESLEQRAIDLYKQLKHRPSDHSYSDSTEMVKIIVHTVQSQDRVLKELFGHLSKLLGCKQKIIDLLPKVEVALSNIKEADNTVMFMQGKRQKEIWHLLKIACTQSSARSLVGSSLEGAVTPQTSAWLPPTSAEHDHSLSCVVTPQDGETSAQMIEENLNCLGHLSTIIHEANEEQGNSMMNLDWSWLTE
Description: KiNativ cellular kinase profiling. The format is cell-based. As to conditions: for Percent inhibition of kinase labeling by ATP-biotin: A375 cells, 1 μM, 3 hours, IKKa, labeling site Lys2; for inhibition at 1 µM: A-375, read-out: Percent inhibition of kinase labeling by ATP-biotin.

The next experiment has as its system MARK2,MARK3. Description: KiNativ cellular kinase profiling. The format is cell-based. To be noted: A375 cells, 1 μM, 3 hours; MARK2,MARK3, labeling site Lys2.
The next experiment addresses IRAK1 (Homo sapiens, UniProt P51617). Description: KiNativ cellular kinase profiling. The format is cell-based. To be noted: for Percent inhibition of kinase labeling by ATP-biotin: A375 cells, 1 μM, 3 hours, IRAK1, labeling site Lys2; for inhibition at 1 µM: A-375, read-out: Percent inhibition of kinase labeling by ATP-biotin.
For another experiment, the target named is BRAF (Homo sapiens, UniProt P15056). Briefly: KiNativ cellular kinase profiling. The format is cell-based. To be noted: for Percent inhibition of kinase labeling by ATP-biotin: A375 cells, 1 μM, 3 hours, BRAF, labeling site Lys2; for inhibition at 1 µM: A-375, read-out: Percent inhibition of kinase labeling by ATP-biotin.
Chain of BRAF (P15056 whole entry): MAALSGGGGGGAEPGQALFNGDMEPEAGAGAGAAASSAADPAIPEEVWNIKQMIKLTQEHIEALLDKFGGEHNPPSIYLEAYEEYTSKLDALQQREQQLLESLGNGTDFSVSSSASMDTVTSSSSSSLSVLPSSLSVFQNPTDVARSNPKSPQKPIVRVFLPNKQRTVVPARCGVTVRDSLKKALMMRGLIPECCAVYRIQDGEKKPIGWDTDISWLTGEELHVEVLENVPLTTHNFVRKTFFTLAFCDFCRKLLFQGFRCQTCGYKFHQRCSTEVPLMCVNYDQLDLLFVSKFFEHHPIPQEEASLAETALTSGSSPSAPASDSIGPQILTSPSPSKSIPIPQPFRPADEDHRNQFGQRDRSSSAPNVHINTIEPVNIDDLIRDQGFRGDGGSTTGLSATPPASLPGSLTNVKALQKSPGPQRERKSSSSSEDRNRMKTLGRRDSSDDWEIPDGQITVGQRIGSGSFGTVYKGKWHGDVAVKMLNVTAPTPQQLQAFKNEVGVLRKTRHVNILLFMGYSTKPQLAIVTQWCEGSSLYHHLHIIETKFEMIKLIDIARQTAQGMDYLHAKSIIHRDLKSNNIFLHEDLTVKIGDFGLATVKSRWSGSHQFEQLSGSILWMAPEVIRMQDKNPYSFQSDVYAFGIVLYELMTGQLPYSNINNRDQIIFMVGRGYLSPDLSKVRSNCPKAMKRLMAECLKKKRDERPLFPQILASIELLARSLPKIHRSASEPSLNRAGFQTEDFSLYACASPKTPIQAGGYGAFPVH
A further experiment concerns JNK1,JNK2,JNK3. Description: KiNativ cellular kinase profiling. To be noted: A375 cells, 1 μM, 3 hours; JNK1,JNK2,JNK3, labeling site Lys2. The format is cell-based.
Experiment [2] relates to c-Jun phosphorylation and Erk, p38, JNK, Akt, Stat, NF-κB and Rsk pathway nodes. Briefly: microscopy-based cellular pathway profiling with phospho-specific antibodies. The format is cell-based. As to conditions: phospho-specific antibody microscopy.
A further experiment deals with KIT(V559D) (Homo sapiens, UniProt P10721, V559D). Briefly: KinomeScan dissociation constant. The format is binding.
Chain of KIT(V559D) (P10721 26-976 V559D): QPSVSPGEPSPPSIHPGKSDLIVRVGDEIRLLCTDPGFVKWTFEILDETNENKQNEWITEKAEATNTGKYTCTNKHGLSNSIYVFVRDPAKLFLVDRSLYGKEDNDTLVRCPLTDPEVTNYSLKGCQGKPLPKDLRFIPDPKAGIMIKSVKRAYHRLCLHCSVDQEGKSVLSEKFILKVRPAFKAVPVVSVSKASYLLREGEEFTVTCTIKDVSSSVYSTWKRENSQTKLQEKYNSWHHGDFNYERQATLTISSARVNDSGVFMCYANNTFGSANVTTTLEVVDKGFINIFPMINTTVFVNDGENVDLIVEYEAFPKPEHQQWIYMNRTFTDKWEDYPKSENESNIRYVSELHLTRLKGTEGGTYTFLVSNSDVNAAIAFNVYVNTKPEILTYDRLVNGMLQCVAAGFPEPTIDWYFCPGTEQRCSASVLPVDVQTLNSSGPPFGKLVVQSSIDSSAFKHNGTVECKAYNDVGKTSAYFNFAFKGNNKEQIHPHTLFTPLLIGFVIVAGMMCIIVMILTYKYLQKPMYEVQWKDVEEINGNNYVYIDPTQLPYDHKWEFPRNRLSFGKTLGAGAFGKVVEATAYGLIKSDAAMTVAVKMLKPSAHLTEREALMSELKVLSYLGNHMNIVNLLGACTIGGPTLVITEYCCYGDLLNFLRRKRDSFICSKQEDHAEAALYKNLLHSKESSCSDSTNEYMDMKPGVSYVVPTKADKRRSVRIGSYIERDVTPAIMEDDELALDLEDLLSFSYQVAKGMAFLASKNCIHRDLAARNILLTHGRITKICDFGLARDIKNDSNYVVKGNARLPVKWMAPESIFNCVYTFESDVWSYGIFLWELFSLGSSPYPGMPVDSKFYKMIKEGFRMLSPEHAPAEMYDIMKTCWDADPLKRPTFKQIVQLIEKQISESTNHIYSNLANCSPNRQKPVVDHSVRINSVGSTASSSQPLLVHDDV

Chain of MARK2 (Q7KZI7 whole entry): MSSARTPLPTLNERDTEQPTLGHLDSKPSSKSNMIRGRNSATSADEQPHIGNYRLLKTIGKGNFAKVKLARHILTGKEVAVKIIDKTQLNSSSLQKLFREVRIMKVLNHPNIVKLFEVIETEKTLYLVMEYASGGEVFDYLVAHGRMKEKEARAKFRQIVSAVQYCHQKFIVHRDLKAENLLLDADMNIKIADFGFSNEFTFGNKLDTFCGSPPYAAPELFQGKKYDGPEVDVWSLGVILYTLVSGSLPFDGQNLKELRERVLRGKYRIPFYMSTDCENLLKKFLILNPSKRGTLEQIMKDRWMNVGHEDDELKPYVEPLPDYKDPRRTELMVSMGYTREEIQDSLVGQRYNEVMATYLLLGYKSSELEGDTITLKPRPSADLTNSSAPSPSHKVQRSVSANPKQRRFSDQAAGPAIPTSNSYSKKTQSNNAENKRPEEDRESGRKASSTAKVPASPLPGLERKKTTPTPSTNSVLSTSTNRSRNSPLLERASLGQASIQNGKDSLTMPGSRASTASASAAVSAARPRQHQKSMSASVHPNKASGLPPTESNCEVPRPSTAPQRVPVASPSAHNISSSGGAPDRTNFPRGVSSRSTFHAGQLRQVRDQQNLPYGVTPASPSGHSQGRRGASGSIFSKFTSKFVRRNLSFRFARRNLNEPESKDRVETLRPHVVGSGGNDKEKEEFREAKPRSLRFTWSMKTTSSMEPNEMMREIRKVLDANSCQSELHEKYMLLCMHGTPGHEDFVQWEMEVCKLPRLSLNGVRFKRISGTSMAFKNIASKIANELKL
Chain of CDK9 (P50750 whole entry): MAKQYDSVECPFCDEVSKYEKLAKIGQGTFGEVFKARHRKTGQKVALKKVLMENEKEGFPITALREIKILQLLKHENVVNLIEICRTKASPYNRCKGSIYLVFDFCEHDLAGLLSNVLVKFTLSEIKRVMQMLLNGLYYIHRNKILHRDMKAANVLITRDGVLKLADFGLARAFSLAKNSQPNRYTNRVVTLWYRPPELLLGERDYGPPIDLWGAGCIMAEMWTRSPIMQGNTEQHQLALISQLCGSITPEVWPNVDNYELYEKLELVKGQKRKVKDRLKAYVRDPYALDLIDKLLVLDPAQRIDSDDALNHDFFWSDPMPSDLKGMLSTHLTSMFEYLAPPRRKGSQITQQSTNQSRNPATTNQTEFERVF
Chain of CDK9 (O60563 whole entry partner): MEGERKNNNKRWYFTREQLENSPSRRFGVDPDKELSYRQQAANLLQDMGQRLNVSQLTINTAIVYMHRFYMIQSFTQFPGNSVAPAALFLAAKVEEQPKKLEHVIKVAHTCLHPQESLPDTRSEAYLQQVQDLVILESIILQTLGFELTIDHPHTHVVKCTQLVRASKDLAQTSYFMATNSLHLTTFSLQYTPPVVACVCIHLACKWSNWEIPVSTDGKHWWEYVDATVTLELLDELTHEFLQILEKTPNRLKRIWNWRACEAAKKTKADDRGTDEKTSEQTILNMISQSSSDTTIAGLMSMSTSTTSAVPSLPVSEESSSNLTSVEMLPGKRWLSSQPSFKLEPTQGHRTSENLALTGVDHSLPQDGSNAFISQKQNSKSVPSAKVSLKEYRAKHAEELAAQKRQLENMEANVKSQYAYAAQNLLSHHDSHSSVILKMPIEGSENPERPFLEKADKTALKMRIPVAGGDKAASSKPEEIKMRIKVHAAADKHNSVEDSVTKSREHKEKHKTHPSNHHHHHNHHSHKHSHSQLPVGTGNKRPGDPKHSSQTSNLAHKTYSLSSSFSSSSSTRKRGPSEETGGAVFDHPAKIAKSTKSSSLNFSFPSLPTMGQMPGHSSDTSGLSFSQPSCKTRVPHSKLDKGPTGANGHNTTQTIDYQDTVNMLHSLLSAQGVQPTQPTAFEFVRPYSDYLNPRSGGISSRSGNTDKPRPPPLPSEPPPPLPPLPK

For `CCC(=O)Nc1cccc(C(=O)Nc2ccc(Nc3nccc(-c4cccnc4)n3)cc2)c1` [JNK-IN-6], the “Percent inhibition of kinase labeling by ATP-biotin” value (shortened to “Percent inhibition”) on MARK3 is reported as −7.3%; on PKD2 it was 12%; on CDK9 it was 7.6%; at ZC2/TNIK, −15.9%; with ROCK1,ROCK2 it was 11.6%; at MARK2, 13.4%. Further, the “Percent inhibition” value is listed as 16.8% on PIP5K3; 8.8% in experiment [1]; 27.3% at IKKa; 22.9% in the experiment with MARK2,MARK3; −4.6% on IRAK1; 8.9% on BRAF. Further, the “Percent inhibition” value with JNK1,JNK2,JNK3 turned out to be 27.3%.
On to `CN(C)C/C=C/C(=O)Nc1cccc(C(=O)Nc2ccc(Nc3nccc(-c4cccnc4)n3)cc2)c1` [JNK-IN-7], for which the inhibition at 1 µM on MARK3 was -13.5%; on PKD2 it was 13.6%; on CDK9 it was 16.6%; at ZC2/TNIK, 20.9%; at MARK2 it was 23.6%; on PIP5K3 it was 91.8%. The inhibition at 1 µM on IKKa is -9.2%; on IRAK1, 81%; at BRAF, 7%. Besides, the “Percent inhibition” value with ROCK1,ROCK2 is listed as −21.5%; in experiment [1], 8.3%; in the experiment on MARK2,MARK3, 26.5%; with JNK1,JNK2,JNK3, 99.7%. In addition, in experiment [2], the “on-/off-pathway activity in cellular pathway profiling” value (from here on “on-/off-pathway activity”) is listed as “only on-pathway activity”. For the same compound, at KIT(V559D), the Kd is 48 nM.
For the compound `Cc1cc(NC(=O)c2cccc(NC(=O)/C=C/CN(C)C)c2)ccc1Nc1nccc(-c2cccnc2)n1` [JNK-IN-8], the inhibition at 1 µM at MARK3 is -12%; at PKD2, 4.9%; on CDK9, -34.1%; at ZC2/TNIK it was 9.9%; on MARK2, 9.6%; on PIP5K3 it was 18.7%. The figures for the inhibition at 1 µM on IKKa, on IRAK1 and at BRAF were 4.9%, 0.8% and -23.7%, respectively. The “Percent inhibition” value in the experiment on ROCK1,ROCK2 is listed as −17.1%; in experiment [1] it was −11.3%; in the experiment on MARK2,MARK3 it was 13.9%; with JNK1,JNK2,JNK3 it was 98.7%. For the same compound, in experiment [2], the “on-/off-pathway activity” value is reported as “only on-pathway activity”. The Kd on KIT(V559D) is 92 nM.
Consider `CN(C)C/C=C/C(=O)Nc1cccc(C(=O)Nc2ccc(Nc3nccc(-c4c(-c5ccccc5)nn5ccccc45)n3)cc2)c1` [JNK-IN-11], for which the inhibition at 1 µM on MARK3 is -27.8%; at PKD2, 40.9%; at CDK9, -23.4%; at ZC2/TNIK it was > 80%; at MARK2 it was 20.8%; at PIP5K3, 99.3%. For the same compound, the inhibition at 1 µM at IKKa was -7.3%; on IRAK1 it was 5.4%; on BRAF, 27.8%. Also, the “Percent inhibition” value was −33.9% with ROCK1,ROCK2, 65.1% in experiment [1], 0.4% in the experiment with MARK2,MARK3 and 99.8% with JNK1,JNK2,JNK3. The “on-/off-pathway activity” value in [2] is “off-pathway activity”. At KIT(V559D), this compound displayed a dissociation constant Kd of 8.2 nM.
With `CN(C)C/C=C/C(=O)Nc1cccc(C(=O)Nc2ccc(Nc3nccc(/C(C#N)=C4\Nc5ccccc5S4)n3)cc2)c1` [JNK-IN-12], the “Percent inhibition” value is reported as −67.9% on MARK3; −79% on PKD2; −35.3% at CDK9; −8.9% at ZC2/TNIK; −91% in the experiment with ROCK1,ROCK2; −41.1% on MARK2. Further, the “Percent inhibition” value on PIP5K3 is reported as −11.4%; in experiment [1], −25.5%; on IKKa, −79.2%; in the experiment on MARK2,MARK3 it was −38.7%; on IRAK1 it was −14.9%; on BRAF, 6.2%. The “Percent inhibition” value with JNK1,JNK2,JNK3 is 98.6%. Moreover, the “on-/off-pathway activity” value in [2] is “only on-pathway activity”.
